{
  "source": "paper PMC4724246",
  "about": "(Molecular cell, 2015)",
  "molecules": {"B1": {"name": "MCM, wild-type (S. islandicus) (natural protein, UniProt F0NF15 1-686, looked up)", "chain": "MEIPSKQIDYRDLFIEFLTTFKNTNNQNKYIERINELIAYRKKSLIVEFSDILSFNENLAYEIINNTKIVLPILEGALYDHILQLDPTYQRDIEKVHVRIVGIPRVIELRKIRSTDIDKLITIDGILVKVTPVKERIYKATYKHIHPDCMQEFEWPEDEEMPEILEMPTICPKCGKPGQFRLIPEKTKLIDWQKAVIQERPEEVPSGQLPRQLEIILEDDLVDSARPGDRVKVTGILEIKQDSPIKRGSRAVFDIYMKVSSIEVSQKVLDEVTISEEDEKKIKDLAKDPWIRDRIIASIAPSIYGHWELKEALALALFGGVPKVLEDTRIRGDIHILIIGDPGTAKSQMLQFISRVAPRAVYTTGKGSTAAGLTAAVVREKGTGEYYLEAGALVLADGGIAVIDEIDKMRDEDRVAIHEAMEQQTVSIAKAGIVAKLNARAAVIAAGNPKFGRYITERPVSDNINLPPTILSRFDLIFILKDQPGEQDRELANYILDVHSGKSTKNIIDIDTLRKYIAYARKYIIPKITSEAKNLITDFFVEMRKKSSETPDSPILITPRQLEALIRISEAYAKMALKTEVTREDAERAINIMRLFLESVGVDMESGKIDIDTIMTGKPKSAREKMMKILEIIDSLAVSSECAKVKDILKEAQQVGIEKSNIEKLLTDMRKSGIIYEAKPECYKKV"}},
  "key": {"MCM ΔC": {"target": "MCM ΔC (Saccharolobus islandicus, UniProt F0NF15)", "experiment": "colorimetric phosphate release ATPase assay", "type": "biochemical", "details": "1 mM ATP, 10 mM magnesium acetate, pH 7.9, 50 °C"}, "SEC": {"target": "the molecule itself", "experiment": "SEC"}},
  "data": [
    {"molecule": "Nc1ncnc2c1ncn2[C@@H]1O[C@H](COP(=O)(O)OP(=O)(O)OP(=O)(O)O)[C@@H](O)[C@H]1O", "note": "[ATP]", "values": [
      {"measurement": "colorimetric phosphate release ATPase assay", "setting": "MCM ΔC", "result": "loss of the wH domain results in a marked activation of the ATPase activity"}
    ]},
    {"molecule": "B1", "values": [
      {"measurement": "stoichiometry N", "setting": "SEC", "result": 6}
    ]}
  ]
}
